Reference: paper PMC7038073, “Substituted Piperazines as Novel Potential Radioprotective Agents” (Molecules, 2020)

Experiments:
[1] = WST-1 cytotoxicity test, Jurkat; assay type: cell-based; conditions: human, Jurkat cells, read-out: relative viability (%) compared to untreated control
Experimental: (§1) In this study, the cytotoxic effects of nine new compounds (2, 3, 4, 5, 6, 7, 8, 9, 10) were tested on 10 human cell lines (nine cancer and one non-cancer cell line). The cell lines were treated with each compound at concentrations of 10 µM and 100 µM for 48 h. The proliferation capacity of the treated cells was determined by WST-1 test and compared against the proliferation rate of the untreated control cells (100%).
(§2) The cell lines Jurkat, MOLT-4, A2780, A549, HT-29, PANC-1, HeLa, MCF-7, SAOS-2, and MRC-5 (all purchased from Sigma Aldrich, Czech Republic) were included in this study. All cell lines were maintained according to the provider’s guidelines, and plated and treated in 96-well plates (500 to 30 × 10^3 cells per well). The tested compounds 2, 3, 4, 5, 6, 7, 8, 9, and 10 were dissolved in 0.1% DMSO and kept in 10 mM stock solutions. Before use, the stock solution was diluted in culture media at ratios of 1:100 and 1:1000. The studied cell lines were treated with the compounds 2, 3, 4, 5, 6, 7, 8, 9, and 10 at concentrations of 10 and 100 µM for 48 h. Control cells were tested in culture media with and without DMSO (0.1%). The cells were also treated with 1 µM doxorubicin as a cytotoxicity control.
(§3) The WST-1 (2-(4-iodophenyl)-3-(4-nitrophenyl)-5-(2,4-disulfophenyl)-2H-tetrazolium, monosodium salt) test (Roche, Mannheim, Germany) was used according to the manufacturer’s protocol to determine cell viability in all 10 cell lines 48 h after treatment with the tested compounds. The cells were analyzed in a Tecan Infinite M200 spectrometer (Tecan Group, Männedorf, Switzerland) at 440 nm.

[2] = WST-1 cytotoxicity test, MOLT-4; assay type: cell-based; conditions: human, MOLT-4 cells, read-out: relative viability (%) compared to untreated control; for viability at 48 h, 10 µM: MOLT-4, 10 µM
Experimental: as §1, §2, §3

[3] = WST-1 cytotoxicity test, A549; assay type: cell-based; conditions: human, A549 cells, read-out: relative viability (%) compared to untreated control; for viability at 48 h, 10 µM: A549, 10 µM
Experimental: as §1, §2, §3

[4] = WST-1 cytotoxicity test, HT-29; assay type: cell-based; conditions: human, HT-29 cells, read-out: relative viability (%) compared to untreated control; for viability at 48 h, 10 µM: HT-29, 10 µM
Experimental: as §1, §2, §3

[5] = WST-1 cytotoxicity test, PANC-1; assay type: cell-based; conditions: human, PANC-1 cells, read-out: relative viability (%) compared to untreated control; for viability at 48 h, 10 µM: PANC-1, 10 µM
Experimental: as §1, §2, §3

[6] = WST-1 cytotoxicity test, A2780; assay type: cell-based; conditions: human, A2780 cells, read-out: relative viability (%) compared to untreated control; for viability at 48 h, 10 µM: A2780, 10 µM
Experimental: as §1, §2, §3

[7] = WST-1 cytotoxicity test, HeLa; assay type: cell-based; conditions: human, HeLa cells, read-out: relative viability (%) compared to untreated control
Experimental: as §1, §2, §3

[8] = WST-1 cytotoxicity test, MCF-7; assay type: cell-based; conditions: human, MCF-7 cells, read-out: relative viability (%) compared to untreated control; for viability at 48 h, 10 µM: MCF-7, 10 µM
Experimental: as §1, §2, §3

[9] = WST-1 cytotoxicity test, SAOS-2; assay type: cell-based; conditions: human, SAOS-2 cells, read-out: relative viability (%) compared to untreated control; for viability at 48 h, 10 µM: SAOS-2, 10 µM
Experimental: as §1, §2, §3

[10] = WST-1 cytotoxicity test, MRC-5; assay type: cell-based; conditions: human, MRC-5 cells, read-out: relative viability (%) compared to untreated control; for viability at 48 h, 10 µM: MRC-5, 10 µM
Experimental: as §1, §2, §3

[11] = WST-1 cytotoxicity test, statements over all cell lines; assay type: cell-based, human; conditions: human, 10 µM, across all the 10 cell lines tested, read-out: percentage of viable cells
Experimental: as §1, §2, §3

[12] = tested on: 10 human cell lines (nine cancer and one non-cancer cell line); test: as above; assay type: cell-based; conditions: 48 h
Experimental: as §1, §2, §3

A549 cells = test: MTT assay, IC50 and MTC; conditions: for MTC (maximum tolerated concentration): 24 h of treatment; for IC50: Homo sapiens, A549, 24 h, read-out: IC50 ± SEM
Experimental: In further experiments, MTT (3-(4,5-di-methylthiazol-2-yl)-2,5-diphenyltetrazolium bromide) assay was employed to evaluate the toxicological indexes of the newly synthesized compounds, including IC50 (half-maximal inhibitory concentration) and MTC (maximum tolerated concentration).
IC50 and MTC were determined through MTT assays. The MTT assay was performed according to [35]. In brief, the A549 cell line was plated in 96-well plates (100 µL, 9 × 10^3 cells per well) and incubated overnight. The tested compounds were prepared in phosphate buffer saline (PBS; Sigma–Aldrich) and serially diluted in DMEM (Dulbecco’s Modified Eagle Medium). An untreated control was included as a viability standard in each plate. After 24 h of treatment, the viability of A549 cells was measured at 570 nm. All experiments were performed in triplicate. The GraphPad Prism statistics software v5.04 (GraphPad Software Inc., San Diego, CA, USA) was used to calculate the IC50 values for parameter nonlinear regression. Values are expressed as mean ± SEM.

[13] = 48 h, WST-1, mean ± SD of three experiments
[14] = 100 µM, 48 h, WST-1, mean ± SD of three experiments
[15] = doxorubicin 1 µM cytotoxicity control, WST-1, mean ± SD

Compound | viability at 48 h, 10 µM [1, 13] [%] | viability at 48 h, 10 µM [2, 13] [%] | viability at 48 h, 10 µM [3, 13] [%] | viability at 48 h, 10 µM [4, 13] [%] | viability at 48 h, 10 µM [5, 13] [%] | viability at 48 h, 10 µM [6, 13] [%] | viability at 48 h, 10 µM [7, 13] [%] | viability at 48 h, 10 µM [8, 13] [%] | viability at 48 h, 10 µM [9, 13] [%] | viability at 48 h, 10 µM [10, 13] [%] | melting point [°C] | MTC (maximum tolerated concentration) (A549 cells; A549 cells, MTT) [mM] | IC50 (A549 cells) [µM] | other results
COc1ccc2nc3c(c(NCCN4CCNCC4)c2c1)CCCC3.Cl.Cl.Cl [Compound 2, 7-Methoxy-N-(2-(piperazin-1-yl)ethyl)-1,2,3,4-tetrahydroacridin-9-amine trihydrochloride] | 31 ± 14 | 0 | 27 ± 3 | 28 ± 6 | 39 ± 2 | 44 ± 9 | 25 ± 1 | 15 ± 1 | 28 ± 2 | 23 ± 2 | 172 to 173 | 0.002 | 40 ± 2 | viability at 48 h, 10 µM [11]: < 44%; cytotoxic effect (in words) ([12]; 10 µM, tested cell lines): highly cytotoxic
COc1ccc2nc3c(c(NCCN4CCN(CCO)CC4)c2c1)CCCC3.Cl.Cl.Cl [Compound 3, 7-Methoxy-N-{2-[4-(2-hydroxyethyl)piperazin-1-yl]ethyl}-1,2,3,4-tetrahydroacridin-9-amine trihydrochloride] | 95 ± 9 | 81 ± 13 | 94 ± 15 | 85 ± 11 | 78 ± 6 | 84 ± 7 | 104 ± 13 | 84 ± 9 | 80 ± 4 | 84 ± 2 | 157 to 158 | 0.01 | 140 ± 10 | viability at 48 h, 100 µM [1, 14]: 12 ± 5%; viability at 48 h, 100 µM ([2]; MOLT-4, 100 µM, 48 h, WST-1, mean ± SD of three experiments): 2%; viability at 48 h, 100 µM ([3]; A549, 100 µM, 48 h, WST-1, mean ± SD of three experiments): 13 ± 2%; viability at 48 h, 100 µM ([4]; HT-29, 100 µM, 48 h, WST-1, mean ± SD of three experiments): 14 ± 5%; viability at 48 h, 100 µM ([5]; PANC-1, 100 µM, 48 h, WST-1, mean ± SD of three experiments): 30 ± 4%; viability at 48 h, 100 µM ([6]; A2780, 100 µM, 48 h, WST-1, mean ± SD of three experiments): 20 ± 5%; viability at 48 h, 100 µM [7, 14]: 11 ± 3%; viability at 48 h, 100 µM ([8]; MCF-7, 100 µM, 48 h, WST-1, mean ± SD of three experiments): 10 ± 2%; viability at 48 h, 100 µM ([9]; SAOS-2, 100 µM, 48 h, WST-1, mean ± SD of three experiments): 10 ± 2%; viability at 48 h, 100 µM ([10]; MRC-5, 100 µM, 48 h, WST-1, mean ± SD of three experiments): 9 ± 6%; decrease of cell viability ([12]; 100 µM, all the tested cell lines): ≥ 70%; cytotoxic effect (in words) ([12]; 100 µM, studied cell lines): highly cytotoxic; IC50 fold higher than that for compound 2 (A549 cells; A549 cells, MTT): 3.5 fold
COc1cccc2c1C(=O)c1c(O)c3c(c(O)c1C2=O)C[C@@](O)(C(=O)CO)C[C@@H]3O[C@H]1C[C@H](N)[C@H](O)[C@H](C)O1 [DOX, doxorubicin, reference compound] | – | – | – | – | – | – | – | – | – | – | – | – | – | viability at 48 h, 1 µM [1, 15]: 2%; viability at 48 h, 1 µM ([2]; MOLT-4, doxorubicin 1 µM cytotoxicity control, WST-1, mean ± SD): 1%; viability at 48 h, 1 µM ([3]; A549, doxorubicin 1 µM cytotoxicity control, WST-1, mean ± SD): 42 ± 11%; viability at 48 h, 1 µM ([4]; HT-29, doxorubicin 1 µM cytotoxicity control, WST-1, mean ± SD): 55 ± 18%; viability at 48 h, 1 µM ([5]; PANC-1, doxorubicin 1 µM cytotoxicity control, WST-1, mean ± SD): 78 ± 7%; viability at 48 h, 1 µM ([6]; A2780, doxorubicin 1 µM cytotoxicity control, WST-1, mean ± SD): 8 ± 4%; viability at 48 h, 1 µM [7, 15]: 76 ± 12%; viability at 48 h, 1 µM ([8]; MCF-7, doxorubicin 1 µM cytotoxicity control, WST-1, mean ± SD): 32 ± 3%; viability at 48 h, 1 µM ([9]; SAOS-2, doxorubicin 1 µM cytotoxicity control, WST-1, mean ± SD): 22 ± 4%; viability at 48 h, 1 µM ([10]; MRC-5, doxorubicin 1 µM cytotoxicity control, WST-1, mean ± SD): 22 ± 2%
